Assay results: patent EP0341019A2, “Polyether antibiotic” (priority 1988, dated 1989)
“And” between values parts separate entries of the source, which are not always exact repeats. Equal entries are not always repeated. Positions of bridges follow the written chain, without caps; N, C: chain ends. Non-standard residues stand in square brackets, D forms with d. Residues, ends and D or L forms follow the SMILES beside them. *: point of attachment. Ileψ(thiazoline)Cys = CC[C@H](C)[C@H](N)C1=N[C@H](C(=O)*)CS1; dOrn = NCCC[C@@H](N)C(=O)O

Assays:
[1] = test system: culture A82810.1 (Actinomadura fibrosa sp. nov. NRRL 18348); assay: antibiotic sensitivity disc test on seeded ISP No. 2 agar; assay type: cell-based; set-up: key to Resistance to: (A82810.1): Resistance was scored as (+) when no zone of inhibition was observed; (-) when a zone of inhibition was observed; settings: for resistance / sensitivity of culture A82810.1 to the antibiotic: cephalothin 30 µg, lincomycin 2 µg, penicillin G 10 units, rifampin 5 µg, lysozyme 50 µg/mL, bacitracin 10 units, gentamicin 10 µg, neomycin 30 µg, oleandomycin 15 µg, streptomycin 10 µg, tetracycline 30 µg, tobramycin 10 µg, vancomycin 30 µg; for Resistance to: (A82810.1): Oleandomycin 16 µg, Penicillin G 10 units
Procedure: (§1) Resistance to antibiotics was measured by padding antibiotic sensitivity discs onto the surface of seeded ISP No. 2 agar plates. Resistance was scored as (+) when no zone of inhibition was observed and as (-) when a zone of inhibition was observed.

[2] = test system: Eimeria acervulina Strain 59 And E. tenella Strain 155; assay: anticoccidial feed test in infected chickens, ionophore-sensitive strains; assay type: in vivo; settings: A82810 0 ppm
A. verrucosospora = assay: antibiotic sensitivity disc test (species comparison); assay type: cell-based; set-up: key: Resistance was scored as (+) when no zone of inhibition was observed; (-) when a zone of inhibition was observed; settings: Oleandomycin 16 µg; Penicillin G 10 units
Procedure: as §1

[3] = test system: Eimeria maxima Strain FS-410; assay: anticoccidial feed test in infected chickens, ionophore-resistant strain; assay type: in vivo; settings: A82810 0 ppm
[4] = test system: Eimeria acervulina Strain FS-273 and E. tenella Strain FS-456; assay: anticoccidial feed test in infected chickens, ionophore-resistant strains; assay type: in vivo; settings: Table XX, A82810 0 ppm
[5] = test system: Eimeria acervulina Strain FS-316 And E. tenella Strain FS-456; assay: as above; assay type: in vivo; settings: A82810 0 ppm
E. maxima Strain LIT-626 = assay: anticoccidial feed test in infected chickens, ionophore-resistant strain; assay type: in vivo; settings: Table XIII; A82810 0 ppm; Benzeneamine ppm r4-r7: 8,10,12,14
[6] = test system: Eimeria acervulina H & C and Eimeria tenella Wis; assay: anticoccidial feed test in infected chickens, ionophore-sensitive strains; assay type: in vivo; settings: Table XIX, A82810 0 ppm
[7] = test system: E. acervulina Strain FS-316; assay: anticoccidial feed test in infected chickens, ionophore-resistant strain; assay type: in vivo; settings: Table X, A82810 0 ppm
[8] = test system: Eimeria maxima Strain FS-177; assay: anticoccidial feed test in infected chickens, ionophore-sensitive strain; assay type: in vivo; settings: A82810 0 ppm
[9] = Benzeneamine ppm r4-r6: 8,12,16
[10] = Benzeneamine ppm r10-r12: 8,12,16

Compound: CO[C@H]1/C=C/O[C@@]2(C)Oc3c(C)c(O)c4c(O)c(c(/C=N/N5CCN(C)CC5)c(O)c4c3C2=O)NC(=O)/C(C)=C\C=C\[C@H](C)[C@H](O)[C@@H](C)[C@@H](O)[C@@H](C)[C@H](OC(C)=O)[C@@H]1C [rifampin]
- resistance / sensitivity of culture A82810.1 to the antibiotic [1]: resistant

Compound: O=[N+]([O-])c1cc([N+](=O)[O-])c(Nc2ccc(Br)c3ccccc23)c(C(F)(F)F)c1 [4-Bromo-N-[2,4-dinitro-6-trifluoromethyl)phenyl]-1-naphthaleneamine]
- WEIGHT GAIN, PERCENT OF CONTROL ([2]; Table XXIV, 4-Bromo naphthaleneamine ppm r4-r7: 4,8,12,16): 73% OF CONTROL and 66% OF CONTROL and 72% OF CONTROL and 67% OF CONTROL
- AVERAGE INTESTINAL LESION SCORES ([2]; Table XXIV, 4-Bromo naphthaleneamine ppm r11-r14: 4,8,12,16): 6.2 and 6.9 and 6.6 and 3.8
- AVERAGE CECAL LESION SCORES ([2]; Table XXIV, 4-Bromo naphthaleneamine ppm r18-r21: 4,8,12,16): 2.9 and 3.5 and 3.0

Compound: CC(=O)OCC1=C(C(=O)O)N2C(=O)[C@@H](NC(=O)Cc3cccs3)[C@H]2SC1 [cephalothin]
- resistance / sensitivity of culture A82810.1 to the antibiotic [1]: resistant

Compound: CC1(C)S[C@@H]2[C@H](NC(=O)Cc3ccccc3)C(=O)N2[C@H]1C(=O)O [penicillin G]
- Resistance to: (A82810.1) [1]: +
- resistance / sensitivity of culture A82810.1 to the antibiotic [1]: resistant
- Resistance to: (A. verrucosospora) (A. verrucosospora): -

Compound: neomycin
- resistance / sensitivity of culture A82810.1 to the antibiotic [1]: sensitive

Compound: O=[N+]([O-])c1cc([N+](=O)[O-])c(Nc2ccc(OC(F)(F)C(F)F)cc2)c(C(F)(F)F)c1 [Benzeneamine, 2,4-Dinitro-N-[4-(1,1,2,2-tetrafluoroethoxy)phenyl]-6-(trifluoromethyl)benzeneamine]
- WEIGHT GAIN, PERCENT OF CONTROL ([3]; Table XIV, Benzeneamine ppm r4-r7: 8,10,12,14): 90% OF CONTROL and 88% OF CONTROL and 92% OF CONTROL
- AVERAGE INTESTINAL LESION SCORES ([3]; Table XIV, Benzeneamine ppm r11-r14: 8,10,12,14): 3.8 and 3.7 and 3.3
- WEIGHT GAIN, PERCENT OF CONTROL ([3]; Table XV, Benzeneamine ppm r4-r7: 9,10,11,12): 90% OF CONTROL and 94% OF CONTROL and 87% OF CONTROL and 84% OF CONTROL
- AVERAGE INTESTINAL LESION SCORES ([3]; Table XV, Benzeneamine ppm r11-r14: 9,10,11,12): 4.0 and 3.8 and 3.7
- WEIGHT GAIN, PERCENT OF CONTROL ([3]; Table XVI, Benzeneamine ppm r4-r8: 16,18,20,22,24): 71% OF CONTROL and 76% OF CONTROL and 81% OF CONTROL and 79% OF CONTROL and 83% OF CONTROL
- AVERAGE INTESTINAL LESION SCORES ([3]; Table XVI, Benzeneamine ppm r12-r16: 16,18,20,22,24): 4.0 and 3.1 and 3.4 and 3.7 and 2.6
- LESION SCORE ([3]; Table XVII, Benzeneamine ppm r4-r6: 8,12,16): 3.3 and 2.9 and 2.4
- WEIGHT GAIN, PERCENT OF CONTROL ([3]; Table XVII, Benzeneamine ppm r10-r12: 8,12,16): 68% OF CONTROL and 59% OF CONTROL and 74% OF CONTROL
- INTESTINAL LESION SCORE ([3]; Table XVIII, Benzeneamine ppm r4-r6: 8,12,16): 4.0 and 3.9 and 3.3
- WEIGHT GAIN, PERCENT OF CONTROL ([3]; Table XVIII, Benzeneamine ppm r10-r12: 8,12,16): 91% OF CONTROL and 95% OF CONTROL and 93% OF CONTROL
- TOTAL LESION SCORE ([2]; Table VI, Benzeneamine ppm r4-r7: 4,8,12,16): 12.4 and 10.9 and 10.4 and 10.8
- WEIGHT GAIN, PERCENT OF CONTROL ([2]; Table VI, Benzeneamine ppm r11-r14: 4,8,12,16): 75% OF CONTROL and 68% OF CONTROL and 73% OF CONTROL and 76% OF CONTROL
- LESION SCORE [4, 9]: 9.4 and 8.4 and 8.0
- WEIGHT GAIN, PERCENT OF CONTROL [4, 10]: 70% OF CONTROL and 72% OF CONTROL and 74% OF CONTROL
- PERCENT REDUCTION IN OOCYST PRODUCTION ([4]; Benzeneamine ppm r16-r18: 8,12,16): 17% and 18% and 20%
- WEIGHT GAIN, PERCENT OF CONTROL ([5]; Table IX, Benzeneamine ppm r4-r8: 16,18,20,22,24): 91% OF CONTROL and 84% OF CONTROL and 88% OF CONTROL and 85% OF CONTROL
- AVERAGE CECAL LESION SCORES ([5]; Table IX, Benzeneamine ppm r20-r24: 16,18,20,22,24): 2.9 and 3.0 and 2.6 and 1.6
- WEIGHT GAIN, PERCENT OF CONTROL ([5]; Table VII, Benzeneamine ppm r11-r14: 4,8,12,16): 90% OF CONTROL and 94% OF CONTROL and 88% OF CONTROL and 87% OF CONTROL
- WEIGHT GAIN, PERCENT OF CONTROL ([5]; Table VIII, Benzeneamine ppm r4-r7: 8,10,12,14): 76% OF CONTROL and 77% OF CONTROL and 75% OF CONTROL and 70% OF CONTROL
- AVERAGE INTESTINAL LESION SCORES ([5]; Table VIII, Benzeneamine ppm r11-r14: 8,10,12,14): 5.9 and 4.8 and 4.5
- AVERAGE CECAL LESION SCORES ([5]; Table VIII, Benzeneamine ppm r18-r21: 8,10,12,14): 3.3 and 3.2 and 3.1 and 2.8
- WEIGHT GAIN, PERCENT OF CONTROL (E. maxima Strain LIT-626): 94% OF CONTROL and 99% OF CONTROL and 93% OF CONTROL and 98% OF CONTROL
- AVERAGE INTESTINAL LESION SCORES [6, 9]: 6.0 and 5.1 and 4.7
- WEIGHT GAIN, PERCENT OF CONTROL [6, 10]: 62% OF CONTROL and 64% OF CONTROL and 69% OF CONTROL
- WEIGHT GAIN, PERCENT OF CONTROL ([7]; Benzeneamine ppm r4-r7: 4,8,12,16): 74% OF CONTROL and 71% OF CONTROL and 82% OF CONTROL and 75% OF CONTROL
- AVERAGE INTESTINAL LESION SCORES ([7]; Benzeneamine ppm r11-r14: 4,8,12,16): 6.9 and 8.4 and 6.3 and 5.8
- INTESTINAL LESION SCORE ([8]; Table XI, Benzeneamine ppm r4-r6: 8,12,16): 3.6 and 3.9 and 3.3
- WEIGHT GAIN, PERCENT OF CONTROL ([8]; Table XI, Benzeneamine ppm r10-r12: 8,12,16): 77% OF CONTROL and 84% OF CONTROL and 87% OF CONTROL
- AVERAGE INTESTINAL LESION SCORES ([8]; Table XII, Benzeneamine ppm r4-r6: 8,12,16): 2.6 and 2.2 and 2.3
- WEIGHT GAIN, PERCENT OF CONTROL ([8]; Table XII, Benzeneamine ppm r10-r12: 8,12,16): 79% OF CONTROL and 88% OF CONTROL and 102% OF CONTROL

Compound: gentamicin
- resistance / sensitivity of culture A82810.1 to the antibiotic [1]: sensitive

Compound: [H]/N=C(/N)N[C@H]1[C@H](O)[C@@H](O)[C@H](O[C@@H]2O[C@@H](C)[C@](O)(C=O)[C@H]2O[C@@H]2O[C@@H](CO)[C@H](O)[C@@H](O)[C@@H]2NC)[C@@H](N/C(N)=N\[H])[C@@H]1O [streptomycin]
- resistance / sensitivity of culture A82810.1 to the antibiotic [1]: sensitive

Compound: CCC[C@@H]1C[C@@H](C(=O)N[C@@H]([C@H]2O[C@H](SC)[C@H](O)[C@@H](O)[C@H]2O)[C@@H](C)O)N(C)C1 [lincomycin]
- resistance / sensitivity of culture A82810.1 to the antibiotic [1]: resistant

Compound: NC[C@H]1O[C@H](O[C@H]2[C@H](O)[C@@H](O[C@H]3O[C@H](CO)[C@@H](O)[C@H](N)[C@H]3O)[C@H](N)C[C@@H]2N)[C@H](N)C[C@@H]1O [tobramycin]
- resistance / sensitivity of culture A82810.1 to the antibiotic [1]: sensitive

Compound: CN[C@H](CC(C)C)C(=O)N[C@H]1C(=O)N[C@@H](CC(N)=O)C(=O)N[C@H]2C(=O)N[C@H]3C(=O)N[C@H](C(=O)N[C@H](C(=O)O)c4cc(O)cc(O)c4-c4cc3ccc4O)[C@H](O)c3ccc(c(Cl)c3)Oc3cc2cc(c3O[C@@H]2O[C@H](CO)[C@@H](O)[C@H](O)[C@H]2O[C@H]2C[C@](C)(N)[C@H](O)[C@H](C)O2)Oc2ccc(cc2Cl)[C@H]1O [vancomycin]
- resistance / sensitivity of culture A82810.1 to the antibiotic [1]: sensitive

Compound: CO[C@H]1C[C@H](O[C@H]2[C@H](C)[C@@H](O[C@@H]3O[C@H](C)C[C@H](N(C)C)[C@H]3O)[C@@H](C)C[C@@]3(CO3)C(=O)[C@H](C)[C@@H](O)[C@@H](C)[C@@H](C)OC(=O)[C@@H]2C)O[C@@H](C)[C@@H]1O [oleandomycin]
- Resistance to: (A82810.1) [1]: -
- resistance / sensitivity of culture A82810.1 to the antibiotic [1]: sensitive
- Resistance to: (A. verrucosospora) (A. verrucosospora): +

Compound: CC[C@H](C)[C@H](N)C1=N[C@H](C(=O)N[C@@H](CC(C)C)C(=O)N[C@H](CCC(=O)O)C(=O)N[C@H](C(=O)N[C@H]2CCCCNC(=O)[C@H](CC(N)=O)NC(=O)[C@@H](CC(=O)O)NC(=O)[C@H](Cc3cnc[nH]3)NC(=O)[C@@H](Cc3ccccc3)NC(=O)[C@H]([C@@H](C)CC)NC(=O)[C@@H](CCCN)NC2=O)[C@@H](C)CC)CS1 [bacitracin] ({Ileψ(thiazoline)Cys}-L[dE]IK[dOrn]I[dF]H[dD]N; lactam 4-C)
- resistance / sensitivity of culture A82810.1 to the antibiotic [1]: sensitive

Compound: O=[N+]([O-])c1cc([N+](=O)[O-])c(Nc2ccc(Cl)c3ccccc23)c(C(F)(F)F)c1 [4-chloro-N-[2,4-dinitro-6-(trifluoromethyl)phenyl]-1-naphthaleneamine]
- WEIGHT GAIN, PERCENT OF CONTROL ([2]; Table XXII, 4-chloro naphthaleneamine ppm r11-r14: 4,8,12,16): 80% OF CONTROL and 78% OF CONTROL and 92% OF CONTROL
- WEIGHT GAIN, PERCENT OF CONTROL ([8]; Table XXIII, 4-chloro naphthaleneamine ppm r11-r14: 4,8,12,16): 87% OF CONTROL and 80% OF CONTROL and 85% OF CONTROL and 84% OF CONTROL
